From US20250177448A1, “NEW USE OF PEG-PHOSPHOLIPID MOLECULES” (ICOAT MEDICAL AB, priority 2022, published 2025)

System: Rhesus factors D, C, c, E and e on erythrocytes
Test: Agglutination test and Rh phenotyping of coated erythrocytes
Assay type: cell-based
Settings: 2 mg/ml final, 30 min 37° C.; one O Rh+ and two A Rh+ blood samples; vs untreated control
Protocol: Whole blood samples (one O, Rh+ blood sample and two A Rh+ blood samples) from the blood center were centrifuged in Eppendorf tubes in an Eppendorf 5810R centrifuge at 2500 rpm for 10 min at room temperature (20-25° C.) and the plasma was removed and discarded. The cell fractions were subject to three washing steps in 50 ml falcon tubes. Each washing step involved adding 45 ml phosphate buffered saline (PBS) to 1 ml cell fraction followed by centrifugation at 2500 rpm for 10 minutes at room temperature.
100 μl cell suspension was mixed with 900 μl PBS and 1000 μl PEG-phospholipid (4 mg/ml, polyethylene glycol-phospholipid with PEG of 5 kDa (PEG-phospholipid) in PBS, SUNBRIGHT® PP-050CN, N-(methylpolyoxyethylene oxycarbonyl)-1,2-dipalmitoyl-sn-glycero-3-phosphoethanolamine, sodium salt, NOF Corp., Japan) to coat the erythrocytes with 2 mg/ml PEG-phospholipid (final concentration) or 1000 μl PBS as control. The erythrocyte samples were incubated 30 min at 37° C. in an incubator under rotation in a POL-EKO laboratory incubator. The erythrocyte samples were washed three times with 2 ml PBS and centrifuged at 2500 rpm for 5 min at room temperature in a Heraeus Biofuge Pico centrifuge.
The washed erythrocyte samples were then subject to an agglutination test and Rh phenotyping. […]

“N-(methylpolyoxyethylene oxycarbonyl)-1,2-dipalmitoyl-sn-glycero-3-phosphoethanolamine [PEG-phospholipid]” was tested, and the “agglutination of erythrocytes (Rhesus factor antigens)” value was “inhibited agglutination”.
